Assay results reported in patent US20230235290A1, “RECOMBINANT CARDIOMYOCYTES AND CARDIOMYOCYTE CELL LINES EXPRESSING HERG” (The Governors of the University of Alberta, priority 2016, published 2023).

Legend:
[1] = SetuBlue cell viability (cell proliferation) assay, fluorometric, on hMYO-hERG cells; assay type: cell-based, human; details: human; hMYO-hERG cells, 48 hours treatment, fluorescence 530/590 nm, GraphPad Prism
Protocol: (§1) Ninety-six (96) well plate(s) were seeded with hMYO-hERG cells containing approximately 1×10^4 cells/well. The plates were first incubated for 24 hours at 37° C., 5% CO2, followed by incubation for 48 hours at 28° C., 5% CO2. The wells were then treated with compound(s) of interest for 48 hours at standard cell cultural conditions. A negative control medium without cells was included to determine background signal.
(§2) The cells were then assayed for toxicity using a SetuBlue™ Cell Proliferation Assay Kit (Fluorometric) (BioIntersect, Catalog #F6009-2500-A). This kit uses a Blue indicator dye, Resazurin, to measure the metabolic capacity of cells. Resazurin is a non-fluorescent, cell permeable and non-toxic compound. Viable cells efficiently reduce the Blue indicator dye to resorufin, which is highly fluorescent and an indicator of cell viability.
(§3) The SetuBlue cell proliferation assay was performed as follows. The old media was aspirated and replaced with fresh 100 μl medium containing 10% volume of SetuBlue reagent containing the Blue indicator dye. The plates were incubated using standard cultural conditions for 1-4 hrs. The plates were than shaken for 10-20 seconds before recording fluorescence at 530/590 nm in PerkinElmer EnSpire® multimode plate reader. The relative fluorescence unit (“RFU”) value of each control well was subtracted from all RFU value to yield corrected RFU values. The corrected RFU values at 530/590 nm (Y axis, Log10 scale) were plotted against concentration of test compound (X axis). The CC50 value were determined by locating the X-axis value corresponding to one-half the maximum (plateau) RFU value using GraphPad Prism software.

[2] = test system: hMYO-hERG cells; test: as above; assay type: cell-based, human
Protocol: as §1, §2, §3

[3] = molecular target: hERG (Homo sapiens, UniProt Q12809); details: literature statement; cited from earlier work
Sequence of hERG (Q12809 whole entry): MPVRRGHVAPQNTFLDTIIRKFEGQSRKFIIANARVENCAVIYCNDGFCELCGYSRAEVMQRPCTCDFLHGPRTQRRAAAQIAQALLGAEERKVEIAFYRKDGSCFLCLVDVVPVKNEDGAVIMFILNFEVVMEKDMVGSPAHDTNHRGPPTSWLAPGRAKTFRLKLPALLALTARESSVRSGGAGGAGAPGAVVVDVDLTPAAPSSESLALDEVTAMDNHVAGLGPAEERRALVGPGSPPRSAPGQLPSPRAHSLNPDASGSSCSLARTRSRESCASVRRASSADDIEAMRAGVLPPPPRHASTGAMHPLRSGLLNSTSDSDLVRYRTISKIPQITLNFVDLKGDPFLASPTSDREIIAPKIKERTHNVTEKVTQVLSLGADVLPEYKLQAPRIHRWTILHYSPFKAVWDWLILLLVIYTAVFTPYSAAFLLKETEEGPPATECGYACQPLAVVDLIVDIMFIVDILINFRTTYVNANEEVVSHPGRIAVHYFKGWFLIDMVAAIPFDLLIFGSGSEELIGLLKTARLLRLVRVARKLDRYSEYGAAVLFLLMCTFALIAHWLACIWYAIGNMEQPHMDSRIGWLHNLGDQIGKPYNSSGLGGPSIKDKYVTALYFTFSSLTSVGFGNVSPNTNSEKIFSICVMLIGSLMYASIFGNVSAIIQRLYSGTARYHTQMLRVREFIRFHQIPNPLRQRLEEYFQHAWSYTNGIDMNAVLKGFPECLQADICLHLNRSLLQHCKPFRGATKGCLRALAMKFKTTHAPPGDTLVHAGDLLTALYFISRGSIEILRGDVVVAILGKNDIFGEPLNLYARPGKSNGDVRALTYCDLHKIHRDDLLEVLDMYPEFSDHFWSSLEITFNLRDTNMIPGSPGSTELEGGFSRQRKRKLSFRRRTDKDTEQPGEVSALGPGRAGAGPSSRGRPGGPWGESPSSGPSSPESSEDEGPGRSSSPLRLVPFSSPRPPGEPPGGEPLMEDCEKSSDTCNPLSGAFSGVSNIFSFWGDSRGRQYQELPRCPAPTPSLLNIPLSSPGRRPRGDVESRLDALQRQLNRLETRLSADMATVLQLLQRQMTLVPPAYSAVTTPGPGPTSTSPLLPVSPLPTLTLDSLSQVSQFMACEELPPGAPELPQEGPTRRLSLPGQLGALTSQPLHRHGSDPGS

Compound | CC50 at 48 h [1] [µM] | concentrations at which cardiotoxic on the hMYO-hERG cell line ([2]; hMYO-hERG cells, 48 hours treatment, FIG. 12A) | cardiotoxicity (known) [3] | hERG inhibitory activity (known) [3] | cardiotoxicity on the hMYO-hERG cells ([2]; at concentrations as high as 400 μM, compared to control vehicle at 400 μM)
COc1cccc2c1C(=O)c1c(O)c3c(c(O)c1C2=O)C[C@@](O)(C(=O)CO)C[C@@H]3O[C@H]1C[C@H](N)[C@H](O)[C@H](C)O1 [doxorubicin] | 42.3 | above 50 μM | long-term cardiotoxicity | only slight effects on hERG | –
C=C[C@H]1C[N@@]2CC[C@H]1C[C@@H]2[C@@H](O)c1ccnc2ccc(OC)cc12 [quinidine] | – | – | – | – | not significantly cardiotoxic
